From the NIST ThermoML archive (doi:10.1016/j.jct.2011.05.028)
Several values for one entry are separate records, joined by “and”; a condition that tells them apart may be missing. Equal values may be shown once.

Settings: Liquid, Transpiration method

[N-]=[N+]=NCCO [2-azidoethanol]
Settings | vapor or sublimation pressure [kPa]
284.6 K | 0.021
287.3 K | 0.0267
288.8 K | 0.0298
291.8 K | 0.0398
294.8 K | 0.052
297.7 K | 0.0664
300.7 K | 0.088
303.6 K | 0.1076
306.6 K | 0.1398
309 K | 0.1676
309.6 K | 0.1718
312 K | 0.2073
312.6 K | 0.2168
316 K | 0.2782
316.1 K | 0.2882

CCOCCN=[N+]=[N-] [(azidoethoxy)ethane]
Settings | vapor or sublimation pressure [kPa]
274.1 K | 0.2423
275.7 K | 0.2804
277.1 K | 0.3181
277.9 K | 0.3191
278.7 K | 0.3325
279.4 K | 0.3333
280.2 K | 0.3892
281.5 K | 0.4113
282.4 K | 0.4364
283.2 K | 0.4705
284.8 K | 0.5331
286.2 K | 0.5994
287.8 K | 0.6765
289.2 K | 0.7246
290.7 K | 0.7842
292.2 K | 0.8444
292.3 K | 0.8535
293.7 K | 0.9715
295.2 K | 1.061
296.7 K | 1.173
298.2 K | 1.313
300.7 K | 1.55

[N-]=[N+]=NC1CCCCC1 [azidocyclohexane]
Settings | vapor or sublimation pressure [kPa]
279.6 K | 0.0856
281.6 K | 0.1002
283.4 K | 0.1159
285.3 K | 0.1366
286.6 K | 0.1432
287.2 K | 0.1571
288.9 K | 0.1754
290.2 K | 0.1885
291.9 K | 0.2153
293.2 K | 0.231
295.5 K | 0.2749
297.1 K | 0.3013
298.3 K | 0.3332
300.1 K | 0.3875
301.3 K | 0.3917
303.1 K | 0.4574

[N-]=[N+]=NCSc1ccccc1 [azidomethyl phenyl sulfide]
Settings | vapor or sublimation pressure [kPa]
299.6 K | 0.00448
303.5 K | 0.0064
307.3 K | 0.00918
310.3 K | 0.01158
313.3 K | 0.01502
316.2 K | 0.01866
319.2 K | 0.02463
324.2 K | 0.03511

[N-]=[N+]=NC1CCCC1 [cyclopentyl azide]
Settings | vapor or sublimation pressure
275.5 K | 0.3701 kPa
279.2 K | 0.4454 kPa
281.3 K | 0.48 kPa
283.2 K | 0.5664 kPa
285.3 K | 0.6268 kPa
287 K | 0.722 kPa
288.7 K | 0.7419 kPa
291.1 K | 0.8591 kPa
293 K | 0.9879 kPa and 0.9833 kPa
295.1 K | 1.102 kPa
295.8 K | 1.1 kPa
297.2 K | 1.342 kPa
298.5 K | 1.418 kPa
299.1 K | 1.45 kPa
300.8 K | 1.466 kPa
301.1 K | 1.615 kPa
303.1 K | 1.88 kPa
303.3 K | 1.899 kPa
305.8 K | 1.953 kPa
306.1 K | 2.066 kPa
308.2 K | 2.239 kPa
310.7 K | 2.494 kPa
313.3 K | 2.898 kPa
317.9 K | 3.913 kPa
323.1 K | 4.896 kPa
327.7 K | 5.951 kPa
333.4 K | 7.854 kPa

CC(=O)OC1CCCC1 [cyclopentyl ethanoate]
Settings | vapor or sublimation pressure [kPa]
274.1 K | 0.0795
276.1 K | 0.0894
278.2 K | 0.1067
281.3 K | 0.1295
283.2 K | 0.1597
286.3 K | 0.1983
288.4 K | 0.2248
291.2 K | 0.278
293.2 K | 0.3029
296.4 K | 0.4022
298.2 K | 0.4443
303.2 K | 0.6114
308.4 K | 0.8519

CCOC(=O)CN=[N+]=[N-] [ethyl azidoacetate]
Settings | vapor or sublimation pressure [kPa]
301.4 K | 0.1784
304.8 K | 0.2378
308.3 K | 0.3083
314.3 K | 0.4549
320.2 K | 0.6452
323.2 K | 0.7874
326.2 K | 0.9687
332.2 K | 1.38
338.1 K | 1.929
341.1 K | 2.397
344.3 K | 2.714
